The text below walks through data of US12180207B2 (ARRAY BIOPHARMA INC., priority 2018, dated 2024).

The target in test [1] is HEK-293 cells transfected with dox-inducible human wild type FGFR1 (Homo sapiens (Human), UniProt P11362). The test is described as follows: FGFR1 pERK cell assay. Format: cell-based. The settings on record: HEK-293 dox-inducible FGFR1, 1 hour compound, 100 ng/ml FGF-acidic; maximum concentration 5 μM. Put shortly: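 In HEK-293 cells with dox-induced human wild-type FGFR1, compounds (1:3 dilutions, top 5 μM final) were applied 1 h at 37°C before 5 min stimulation with 100 ng/ml FGF-acidic. Phospho-ERK1/2 measured by MSD sandwich immunoassay; IC50 from 4-parameter fit of POC versus vehicle and control compound.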

In test [2] the target is recombinant human FGFR3 (amino acids R397-T806) (Homo sapiens (Human), UniProt P22607). The test is described as follows: FGFR3 enzyme activity assay (LanthaScreen TR-FRET). The test is classed as biochemical. As to conditions: 25 μM ATP, 10 min incubation at 22° C., average of multiple determinations if made, read-out: FGFR3 Enz FRET IC50. Put shortly:
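GST-HIS6-tagged human FGFR3 (R397-T806) was reacted with 100 nM Alexa Fluor 647-Poly-GT substrate and 25 μM ATP plus compound in HEPES/MgCl2/Triton buffer, pH 7.5, 2% DMSO, for 10 min at 22 °C.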

The target in test [3] is FGFR3 (SEQ ID NO: 5, amino acids 449-759) (Homo sapiens (Human), UniProt P22607). Nature of the test: LC/MS FGFR3 kobs assay (covalent protein modification). The test is classed as binding. The settings on record: 500 nM FGFR3, 3 μM compound. Put shortly:
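Covalent modification of FGFR1 (aa 458-765) or FGFR3 (aa 449-759) followed over time; reactions quenched with 0.4% formic acid and analysed by Q-TOF LC/MS after deconvolution. Percent unmodified protein, normalized to DMSO controls, fit to exponential decay to give kobs; averaged where repeated.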

Test [4] concerns the target recombinant human FGFR2 cytoplasmic domain (amino acids 403-822) (Homo sapiens (Human), UniProt P21802). Nature of the test: FGFR2 enzyme activity assay (LanthaScreen TR-FRET). Format: biochemical. The settings on record: 15 μM ATP, 20 min incubation at 22° C., average of multiple determinations if made, read-out: FGFR2 Enz FRET IC50. In short, it runs like this: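 His-tagged FGFR2 cytoplasmic domain ([…]) with 100 nM Alexa Fluor 647-poly-GT peptide and 15 μM ATP in HEPES/MgCl2/Triton buffer, pH 7.5, 2% DMSO, 20 min at 22 °C. EDTA-quenched, Eu-PY20 antibody added, TR-FRET read after 60 min.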

Test [5] has as its target FGFR1 (SEQ ID NO: 1, amino acids 458-765) (Homo sapiens (Human), UniProt P11362). The test is described as follows: LC/MS FGFR1 kobs assay (covalent protein modification). As to conditions: 500 nM FGFR1, 3 μM compound. The test is classed as binding. Put shortly:
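Covalent labeling of FGFR1 kinase domain (aa 458-765) tracked over time by intact-protein LC/MS after formic acid quench. kobs derived by fitting DMSO-normalized percent unmodified FGFR1 to an exponential decay model.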

SMILES strings stand for the structures.

Sequence of HEK-293 cells transfected with dox-inducible human wild type FGFR1 (P11362 22-822): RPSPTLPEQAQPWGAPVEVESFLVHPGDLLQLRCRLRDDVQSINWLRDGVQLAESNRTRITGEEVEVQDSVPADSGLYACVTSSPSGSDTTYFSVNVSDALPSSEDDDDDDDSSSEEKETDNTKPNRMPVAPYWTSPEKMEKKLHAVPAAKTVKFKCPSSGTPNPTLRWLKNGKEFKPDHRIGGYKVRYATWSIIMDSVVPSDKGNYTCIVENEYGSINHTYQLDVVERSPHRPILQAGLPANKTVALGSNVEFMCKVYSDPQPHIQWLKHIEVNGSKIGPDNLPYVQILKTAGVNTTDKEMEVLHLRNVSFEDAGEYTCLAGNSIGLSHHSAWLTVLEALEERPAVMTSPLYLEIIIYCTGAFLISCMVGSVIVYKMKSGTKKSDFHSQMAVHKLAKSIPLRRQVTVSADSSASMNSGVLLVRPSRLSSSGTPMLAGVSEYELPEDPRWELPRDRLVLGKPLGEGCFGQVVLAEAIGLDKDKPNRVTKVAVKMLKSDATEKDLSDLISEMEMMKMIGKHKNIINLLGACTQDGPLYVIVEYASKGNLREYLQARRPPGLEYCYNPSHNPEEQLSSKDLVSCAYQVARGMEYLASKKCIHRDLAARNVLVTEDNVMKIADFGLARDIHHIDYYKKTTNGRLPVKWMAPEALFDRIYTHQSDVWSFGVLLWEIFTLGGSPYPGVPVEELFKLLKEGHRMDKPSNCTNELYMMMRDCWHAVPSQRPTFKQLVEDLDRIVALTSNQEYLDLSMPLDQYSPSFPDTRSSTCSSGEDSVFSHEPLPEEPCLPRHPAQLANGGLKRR
Sequence of FGFR3 (SEQ ID NO: 5, amino acids 449-759) (P22607 449-759): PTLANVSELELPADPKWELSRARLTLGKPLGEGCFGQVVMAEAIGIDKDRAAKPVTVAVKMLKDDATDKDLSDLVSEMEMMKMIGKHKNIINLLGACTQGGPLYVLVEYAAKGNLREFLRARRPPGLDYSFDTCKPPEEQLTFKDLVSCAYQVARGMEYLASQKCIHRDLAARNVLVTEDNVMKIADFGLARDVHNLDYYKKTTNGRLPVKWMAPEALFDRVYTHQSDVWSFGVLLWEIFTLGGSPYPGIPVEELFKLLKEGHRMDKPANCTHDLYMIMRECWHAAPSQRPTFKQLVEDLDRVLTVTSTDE
Sequence of recombinant human FGFR3 (amino acids R397-T806) (P22607 397-806): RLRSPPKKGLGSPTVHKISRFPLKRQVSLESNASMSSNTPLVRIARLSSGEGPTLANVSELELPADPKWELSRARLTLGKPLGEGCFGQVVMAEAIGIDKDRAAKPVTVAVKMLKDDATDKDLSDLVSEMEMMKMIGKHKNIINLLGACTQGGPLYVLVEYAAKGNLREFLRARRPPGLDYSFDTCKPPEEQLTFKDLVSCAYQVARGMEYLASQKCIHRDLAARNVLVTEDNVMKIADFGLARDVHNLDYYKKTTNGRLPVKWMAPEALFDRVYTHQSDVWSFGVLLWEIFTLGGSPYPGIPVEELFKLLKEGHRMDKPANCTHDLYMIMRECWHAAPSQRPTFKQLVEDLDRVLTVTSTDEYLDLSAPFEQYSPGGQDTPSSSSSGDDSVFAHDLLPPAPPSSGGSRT
Sequence of FGFR1 (SEQ ID NO: 1, amino acids 458-765) (P11362 458-765): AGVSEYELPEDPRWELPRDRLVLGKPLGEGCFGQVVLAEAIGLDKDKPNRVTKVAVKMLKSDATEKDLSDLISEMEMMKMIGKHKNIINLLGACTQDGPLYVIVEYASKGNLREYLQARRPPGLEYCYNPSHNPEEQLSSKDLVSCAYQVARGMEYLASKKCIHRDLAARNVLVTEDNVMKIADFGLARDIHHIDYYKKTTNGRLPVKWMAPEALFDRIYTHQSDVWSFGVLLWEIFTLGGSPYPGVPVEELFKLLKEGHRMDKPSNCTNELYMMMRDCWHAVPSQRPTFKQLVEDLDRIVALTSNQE
Sequence of recombinant human FGFR2 cytoplasmic domain (amino acids 403-822) (P21802 402-821): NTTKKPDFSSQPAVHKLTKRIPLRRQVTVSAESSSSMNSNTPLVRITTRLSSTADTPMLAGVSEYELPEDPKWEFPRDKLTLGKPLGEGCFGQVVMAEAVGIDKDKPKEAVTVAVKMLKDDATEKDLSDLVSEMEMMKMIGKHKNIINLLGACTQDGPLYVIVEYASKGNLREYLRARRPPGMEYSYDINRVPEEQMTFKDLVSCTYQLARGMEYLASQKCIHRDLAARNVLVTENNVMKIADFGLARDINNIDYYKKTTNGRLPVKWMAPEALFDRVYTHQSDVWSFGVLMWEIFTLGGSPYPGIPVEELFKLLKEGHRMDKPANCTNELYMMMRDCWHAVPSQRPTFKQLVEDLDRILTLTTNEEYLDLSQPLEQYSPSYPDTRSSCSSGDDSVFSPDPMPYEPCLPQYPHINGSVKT

`C=CC(=O)N1CC(CN2C[C@H]3C[C@@H]2CN3c2ccc(-c3cc(OC)c4c(C#N)cnn4c3)cn2)C1` [Example 108, 6-(6-((1R,4R)-5-((1-acryloylazetidin-3-yl)methyl)-2,5-diazabicyclo[2.2.1]heptan-2-yl)pyridin-3-yl)-4-methoxypyrazolo[1,5-a]pyridine-3-carbonitrile]: the IC50 was found to be 116 nM in test [1], 10 nM in test [2] and 7 nM in test [4]. The “FGFR3 Enz kobs” value in test [3] was determined as 0.01344 min⁻¹. Moreover, the “FGFR1 Enz kobs” value in test [5] was 0.00291 min⁻¹.
In the same order, the values of `C=CC(=O)N1CC(C(=O)N2CCN(c3ccc(-c4cc(OC)c5c(C#N)cnn5c4)cn3)CC2)C1` [Example 111, 6-(6-(4-(1-acryloylazetidine-3-carbonyl)piperazin-1-yl)pyridin-3-yl)-4-methoxypyrazolo[1,5-a]pyridine-3-carbonitrile] are 288 nM, 3 nM, 4 nM, 0.04009 min⁻¹ and 0.00263 min⁻¹.
In the same order, the values of `C=CC(=O)N1CC(F)(C(=O)N2CCN(c3ccc(-c4cc(OC)c5c(C#N)cnn5c4)cn3)CC2)C1` [Example 112, 6-(6-(4-(1-acryloyl-3-fluoroazetidine-3-carbonyl)piperazin-1-yl)pyridin-3-yl)-4-methoxypyrazolo[1,5-a]pyridine-3-carbonitrile] are 122 nM, 20 nM, 9 nM, 0.1108 min⁻¹ and 0.00852 min⁻¹.
In the same order, the values of `C=CC(=O)N1CC(C(=O)N2CCN(c3ncc(-c4cc(OC)c5c(C#N)cnn5c4)cc3C)CC2)C1` [Example 113, 6-(6-(4-(1-acryloylazetidine-3-carbonyl)piperazin-1-yl)-5-methylpyridin-3-yl)-4-methoxypyrazolo[1,5-a]pyridine-3-carbonitrile] are 1570 nM, 105 nM, 42 nM, 0.02175 min⁻¹ and 0.00304 min⁻¹.
Consider `C=CC(=O)N1CC(F)(C(=O)N2CCN(c3cc(C)c(-c4cc(OC)c5c(C#N)cnn5c4)cn3)CC2)C1` [Example 114, 6-(6-(4-(1-acryloyl-3-fluoroazetidine-3-carbonyl)piperazin-1-yl)-4-methylpyridin-3-yl)-4-methoxypyrazolo[1,5-a]pyridine-3-carbonitrile], for which the half-maximal inhibitory concentration (IC50) in test [1] was 1310 nM; in test [2], 258 nM; in test [4], 150 nM. Besides, the “FGFR3 Enz kobs” value in test [3] stood at 0.03264 min⁻¹. The “FGFR1 Enz kobs” value in test [5] is 0.00369 min⁻¹.
In the same order, the values of `C=CC(=O)N1CC(C(=O)N2CCN(c3ccc(-c4cc(OC)c5c(C#N)cnn5c4)nn3)CC2)C1` [Example 115, 6-(6-(4-(1-acryloylazetidine-3-carbonyl)piperazin-1-yl)pyridazin-3-yl)-4-methoxypyrazolo[1,5-a]pyridine-3-carbonitrile] are ≥ 5000 nM, 18 nM, 25 nM, 0.01937 min⁻¹ and 0.0016 min⁻¹.
The corresponding values for `C=CC(=O)N1CC(C(=O)N2CCN(c3cnc(-c4cc(OC)c5c(C#N)cnn5c4)cn3)CC2)C1` [Example 116, 6-(5-(4-(1-acryloylazetidine-3-carbonyl)piperazin-1-yl)pyrazin-2-yl)-4-methoxypyrazolo[1,5-a]pyridine-3-carbonitrile] are 1230 nM, 27 nM, 19 nM, 0.02585 min⁻¹ and 0.00277 min⁻¹.
The corresponding values for `C=CC(=O)N1CC(OC)(C(=O)N2CCC(n3ncc(-c4cc(OC)c5c(Cl)cnn5c4)c3C)CC2)C1` [Example 117, 1-(3-(4-(4-(3-chloro-4-methoxypyrazolo[1,5-a]pyridin-6-yl)-5-methyl-1H-pyrazol-1-yl)piperidine-1-carbonyl)-3-methoxyazetidin-1-yl)prop-2-en-1-one] are 1200 nM, 43 nM, 359 nM, 0.03885 min⁻¹ and 0.00318 min⁻¹.
On to `C=CC(=O)N1CC(CN2CCC(n3ncc(-c4cc(OC)c5c(Cl)cnn5c4)c3C)CC2)C1` [Example 118, 1-(3-((4-(4-(3-chloro-4-methoxypyrazolo[1,5-a]pyridin-6-yl)-5-methyl-1H-pyrazol-1-yl)piperidin-1-yl)methyl)azetidin-1-yl)prop-2-en-1-one], for which the IC50 in test [1] came to 674 nM; in test [2], 41 nM; in test [4], 239 nM. Moreover, the “FGFR3 Enz kobs” value in test [3] came to 0.02502 min⁻¹. The “FGFR1 Enz kobs” value in test [5] was 0.00303 min⁻¹.
The corresponding values for `C=CC(=O)N1CC(CN2CCC(n3ncc(-c4cc(OC)c5c(Cl)cnn5c4)c3C)CC2)(OC)C1` [Example 119, 1-(3-((4-(4-(3-chloro-4-methoxypyrazolo[1,5-a]pyridin-6-yl)-5-methyl-1H-pyrazol-1-yl)piperidin-1-yl)methyl)-3-methoxyazetidin-1-yl)prop-2-en-1-one] are 591 nM, 39 nM, 219 nM, 0.04536 min⁻¹ and 0.00359 min⁻¹.
Regarding `C=CC(=O)N1CC(CN2CCC(n3ncc(-c4cc(OC)c5c(Cl)cnn5c4)c3C)CC2)C1(C)C` (stereo not drawn) [Example 120, 1-(3-((4-(4-(3-chloro-4-methoxypyrazolo[1,5-a]pyridin-6-yl)-5-methyl-1H-pyrazol-1-yl)piperidin-1-yl)methyl)-2,2-dimethylazetidin-1-yl)prop-2-en-1-one], the IC50 turned out to be 523 nM in test [1], 72 nM in test [2] and 39 nM in test [4]. Also, the “FGFR3 Enz kobs” value in test [3] stood at 0.00758 min⁻¹. Besides, in test [5], the “FGFR1 Enz kobs” value is 0.00068 min⁻¹.
The corresponding values for `C=CC(=O)N1CC(F)(C(=O)N2CCC(n3cc(-c4cc(OC)c5c(Cl)cnn5c4)cn3)CC2)C1` [Example 121, 1-(3-(4-(4-(3-chloro-4-methoxypyrazolo[1,5-a]pyridin-6-yl)-1H-pyrazol-1-yl)piperidine-1-carbonyl)-3-fluoroazetidin-1-yl)prop-2-en-1-one] are 169 nM, 9 nM, 13 nM, 0.06393 min⁻¹ and 0.00369 min⁻¹.
Take `C=CC(=O)N1CC(C(=O)N2CCC(n3cc(-c4cc(OC)c5c(Cl)cnn5c4)cn3)CC2)C1` [Example 122, 1-(3-(4-(4-(3-chloro-4-methoxypyrazolo[1,5-a]pyridin-6-yl)-1H-pyrazol-1-yl)piperidine-1-carbonyl)azetidin-1-yl)prop-2-en-1-one]: the IC50 was determined as 492 nM in test [1], 9 nM in test [2] and 12 nM in test [4]. In addition, in test [3], the “FGFR3 Enz kobs” value stood at 0.01396 min⁻¹. The “FGFR1 Enz kobs” value in test [5] was 0.00127 min⁻¹.
Turning to `C=CC(=O)N1CC(S(=O)(=O)N2CCC(n3cc(-c4cc(OC)c5c(C#N)cnn5c4)cn3)CC2)C1` [Example 134, 6-(1-(1-((1-acryloylazetidin-3-yl)sulfonyl)piperidin-4-yl)-1H-pyrazol-4-yl)-4-methoxypyrazolo[1,5-a]pyridine-3-carbonitrile], the IC50 in test [1] was determined as 96 nM; in test [2] it was 6 nM; in test [4], 16 nM. In addition, the “FGFR3 Enz kobs” value in test [3] was determined as 0.02537 min⁻¹. Further, the “FGFR1 Enz kobs” value in test [5] was found to be 0.00288 min⁻¹.
The corresponding values for `C=CC(=O)N1CCN(C(=O)N2CCC(n3cc(-c4cc(OC)c5c(C#N)cnn5c4)cn3)CC2)C[C@@H]1CC#N` [Example 135, (S)-6-(1-(1-(4-acryloyl-3-(cyanomethyl)piperazine-1-carbonyl)piperidin-4-yl)-1H-pyrazol-4-yl)-4-methoxypyrazolo[1,5-a]pyridine-3-carbonitrile] are 342 nM, 6 nM, 4 nM, 0.02201 min⁻¹ and 0.0029 min⁻¹.
